In patent US8598122B2, “Antagonistic peptides for frizzled-1 and frizzled-2” (Universiteit Maastricht, priority 2009, dated 2013):
Entries after “also recorded” stand apart in the source; their conditions may differ. Where a SMILES comes first, the peptide text is derived from it.

What was measured:
[1] = tested on: C-FIT cells; assay: Differentiation assay (α-SMA) with C-FIT cells; format: cell-based, rat
Source text: For this assay, we used the same C-FIT cells as for the migration assay to study a second component of wound healing, namely, differentiation of fibroblasts into myofibroblasts. When wound healing starts, cells called fibroblasts migrate into the scar. These cells have no contractile properties; however, they can differentiate into myofibroblasts, which can actively contract. To study which signals influence the transition from fibroblast into myofibroblasts, we treated the C-FIT cells and harvested them for mRNA isolation. Next, we tested them for the presence of specific markers for myofibroblasts by reverse transcription of the mRNA and subsequent quantitative PCR analysis, which are absent in fibroblasts. One of those markers is α-smooth muscle actin, which makes the cells contract.
RNA was isolated using the Trizol method (Invitrogen). For the RT-PCR, the RNA was transcribed to cDNA with iscript™ cDNA synthesis kit (Bio-Rad, Hercules Calif., USA), Syber green (Eurogentec, Ghent, Belgium) was used for the detection of cDNA levels and cyclophilin served as the house keeping gene. In Supplementary methods panel 5, the primer sequences are shown.

[2] = tested on: canonical Wnt/Fzd-1/2 signaling; assay: TOPflash experiments in CHO and COS-7 cells overexpressing rFzd-1 or -2; format: cell-based
Source text: Three areas of high homology that contained two cysteines are underlined (UM207), (UM208) and (UM206). In FIGS. 9B through 9D, the inhibitory effect of these three peptides on Wnt3a-induced luciferase activity in HEK293-superTOPflash is shown. […] Again, the peptides by themselves had no effect on the luciferase activity.
For the luciferase experiments not in HEK cells, the cells were additionally transfected with a TOPflash construct, eight TCF/LEF binding sites cloned into the pTA-Luc vector. Luciferase activity was measured using luciferase assay system (Promega, Madison Wis., USA).

[3] = biological target: T1, human Fzd-1 (Homo sapiens, UniProt Q9UP38); assay: Antagonism of Wnt3a activation of human Fzd-1 (data not shown); format: cell-based
T1 construct: expressed in transfected cells
Source text: (§1) In FIG. 3, Panel E, the efficacy of UM206 to block the Wnt3a-induced activation of luciferase activity in HEK293 superTOPflash cells transfected with different Fzds is shown.

[4] = biological target: T2, frizzled-1 (rFzd-1) (Rattus norvegicus, UniProt Q08463); assay: Activity assay: Wnt3a-induced luciferase (superTOPflash) in HEK cells transfected with frizzled-1; format: cell-based; settings: peptide 1.10^−8 M
T2 construct: expressed in transfected cells; host or cells: HEK293 superTOPflash (human embryonic kidney), transient, pcDNA3.1/hygro
Procedure: (§2) Human embryonic kidney (HEK) cells were used for screening. These cells have a luciferase construct stably transfected into the genome (see FIG. 2A), such that when the frizzled receptor is activated and β-catenin is increased, the luciferase is activated by transcription and light can be measured.
(§3) The peptides were tested by transfecting the frizzled-1 or the frizzled-2 receptor and addition of UM206(S-S) to the cell culture. For testing antagonistic activity, UM206 was added and the natural ligand Wnt3a was added, which is a natural stimulus for the canonical pathway.
Day 2: Transfection 12-well plates • heat Fugene6 and DNA 15 minutes at RT • 2 ml serum-free medium in tube • add 3μl fugene • add 2 μg DNA • incubate 30 minutes at RT • wash with PBS • add 50 μtransfectiemix • add 1 ml antibiotica-free medium
Day 3: Add conditioned medium or UM206
Day 4: Luciferase activity measurements • remove medium • wash with PBS • add 500 μl ⅕ lysisbuffer • shake for 60 minutes • centrifuge in tube • 20 μl lysaat and 50 μl luciferase in new tube for measurement • vortex • measure
To determine the inhibitory constant of UM206-8, HEK293-superTOPflash cells were transfected with either rFzd-1 or -2 and incubated with Wnt3a (10^−9M) in the presence of increasing concentrations of either of the peptides (FIG. 15). For UM206, a biphasic inhibition curve was observed that was best fitted with a two-binding-state model.
The cell lines were cultured in 75 cm^2 culture flasks (Corning, Schiphol, the Netherlands) in Dulbeco's modified essential medium with L-glutamine (2 mM), 10% fetal calf serum (Invitrogen, Merelbeke, Belgium), and 1% gentamycin (Sigma-Aldrich, Zwijndrecht, The Netherlands). Before starting the experiment, the cell lines were treated with plasmocin 25 μg/ml (Invivogen, Toulose, France) and tested with a mycoalert mycoplasma detection kit (Lonza, Rockland Me., USA). Cells were transiently transfected with Fugene6 (Roche, Indianapolis Ind., USA) with plasmid DNA, pcDNA3.1/hygro (Invitrogen) with frizzled-1/2/4 or Wnts 3a-5a or with pcDNA3.0 (Invitrogen) containing the β-catenin or frizzled-5 sequence. After transfection, the cells were cultured for 24 hours in conditioned medium, collected from the cultured L-cells, L-cells with Wnt3a or 5a (Invitrogen). At the same moment the antagonist was added.

[5] = tested on: frizzled receptor; assay: Activity on the frizzled receptor (activity assay of Example 1), result in words; format: cell-based
Procedure: as §2, §3
Analogues of UM206 were prepared by solid phase peptide synthesis. Each amino acid residue was sequentially replaced by an alanine residue and antagonistic activity of the analogue was tested as described in the activity assay of Example 1. […] Titles indicate which amino acid residue was substituted by an alanine residue.

[6] = biological target: T3, human Fzd-2 (Homo sapiens, UniProt Q14332); assay: Antagonism of Wnt3a activation of human Fzd-2 (data not shown); format: cell-based
T3 construct: expressed in transfected cells
Source text: as §1

T2 sequence (Q08463 69-641): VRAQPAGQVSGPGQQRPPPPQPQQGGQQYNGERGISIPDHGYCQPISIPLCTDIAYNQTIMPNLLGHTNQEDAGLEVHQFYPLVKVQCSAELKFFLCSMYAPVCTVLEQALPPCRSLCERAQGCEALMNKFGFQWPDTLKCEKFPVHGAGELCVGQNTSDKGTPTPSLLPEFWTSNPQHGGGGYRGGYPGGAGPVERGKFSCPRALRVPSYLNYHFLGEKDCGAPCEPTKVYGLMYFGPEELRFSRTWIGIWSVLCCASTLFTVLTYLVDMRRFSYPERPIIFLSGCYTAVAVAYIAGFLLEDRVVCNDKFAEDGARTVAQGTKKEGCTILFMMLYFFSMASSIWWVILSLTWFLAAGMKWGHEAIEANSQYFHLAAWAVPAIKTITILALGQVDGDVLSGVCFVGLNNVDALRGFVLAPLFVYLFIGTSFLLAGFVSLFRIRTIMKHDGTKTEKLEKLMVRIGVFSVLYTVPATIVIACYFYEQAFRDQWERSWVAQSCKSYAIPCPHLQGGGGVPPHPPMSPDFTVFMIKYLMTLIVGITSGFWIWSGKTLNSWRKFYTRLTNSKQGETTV
T1 sequence (Q9UP38 70-647): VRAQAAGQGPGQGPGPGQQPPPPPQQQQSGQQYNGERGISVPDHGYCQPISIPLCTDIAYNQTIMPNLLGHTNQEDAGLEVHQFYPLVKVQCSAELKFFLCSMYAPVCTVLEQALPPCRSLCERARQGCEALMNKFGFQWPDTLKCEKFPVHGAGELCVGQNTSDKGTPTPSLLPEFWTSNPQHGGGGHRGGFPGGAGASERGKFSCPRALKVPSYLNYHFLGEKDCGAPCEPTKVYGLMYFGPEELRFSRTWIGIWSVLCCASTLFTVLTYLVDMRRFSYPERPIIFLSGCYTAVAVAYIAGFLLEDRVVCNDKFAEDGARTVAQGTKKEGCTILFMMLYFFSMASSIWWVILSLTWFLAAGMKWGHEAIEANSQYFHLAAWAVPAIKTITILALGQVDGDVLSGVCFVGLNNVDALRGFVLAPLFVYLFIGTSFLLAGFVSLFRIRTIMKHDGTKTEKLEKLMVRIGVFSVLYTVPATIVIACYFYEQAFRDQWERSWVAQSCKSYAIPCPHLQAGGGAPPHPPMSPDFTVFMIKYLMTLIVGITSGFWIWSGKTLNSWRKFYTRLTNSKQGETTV
T3 sequence (Q14332 24-565): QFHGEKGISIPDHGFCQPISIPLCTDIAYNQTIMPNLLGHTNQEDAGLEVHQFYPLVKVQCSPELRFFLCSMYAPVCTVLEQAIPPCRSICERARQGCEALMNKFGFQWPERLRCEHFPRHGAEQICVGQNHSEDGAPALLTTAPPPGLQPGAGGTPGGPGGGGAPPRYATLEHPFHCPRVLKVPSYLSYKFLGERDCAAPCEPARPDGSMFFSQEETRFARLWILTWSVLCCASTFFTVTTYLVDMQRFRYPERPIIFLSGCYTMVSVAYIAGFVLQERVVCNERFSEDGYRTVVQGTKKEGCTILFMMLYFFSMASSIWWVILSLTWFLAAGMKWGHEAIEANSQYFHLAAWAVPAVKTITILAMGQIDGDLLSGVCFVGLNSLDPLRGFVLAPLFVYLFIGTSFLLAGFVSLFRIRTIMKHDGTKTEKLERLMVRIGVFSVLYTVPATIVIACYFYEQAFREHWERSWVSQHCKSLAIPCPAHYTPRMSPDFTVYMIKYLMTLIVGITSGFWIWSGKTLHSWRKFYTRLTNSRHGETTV

CSCC[C@H](NC(=O)CNC(=O)[C@H](CCC(=O)O)NC(=O)[C@H](CO)NC(=O)[C@@H](NC(=O)[C@H](CCCCN)NC(=O)[C@H](CC(N)=O)NC(=O)[C@H](CS)NC(C)=O)[C@@H](C)O)C(=O)N[C@@H](CC(=O)O)C(=O)NCC(=O)N[C@@H](CS)C(=O)N[C@@H](CCC(=O)O)C(=O)N[C@@H](CC(C)C)C(N)=O [UM206, Ac-Cys-Asn-Lys-Thr-Ser-Glu-Gly-Met-Asp-Gly-Cys-Glu-Leu-NH2] (Ac-CNKTSEGMDGCEL-NH2)
Effect on Wnt3a/5a-induced differentiation (α-SMA levels) [1]: completely blocks this differentiation
Blocking of canonical Wnt/Fzd-1/2 signaling in two other cell lines [2]: selectively block
Antagonizing activation of human Fzd-1 by Wnt3a [3]: fully effective
Blocking of Wnt3a-induced luciferase activity, rFzd-1 [4]: blocked almost completely; also recorded: abolished the induction of luciferase activity almost completely
Activity on the frizzled receptor (in words) [5]: very potent antagonist
IC50 (range in words) [5]: in the nanomolar range
Antagonizing activation of human Fzd-2 by Wnt3a [6]: fully effective
